This is an account of results in PMC4486471 (Nature communications, 2014).

For orientation: IC50 means the concentration that inhibits the measured activity by half. One may read the Kd as the free concentration of one partner at which half of the binding sites on the other are occupied at equilibrium, for simple one-to-one binding. Read a high Kd as a looser complex. As a reminder, the EC50 is the concentration giving half of the maximal effect.

In data set [1] the test system is rheumatoid arthritis model. Conditions: cited from earlier work.
Data set [2] concerns the target T1, yeast IRE1 (Saccharomyces cerevisiae, UniProt P32361, DEL869-892).
T1 sequence (P32361 with tags, fused parts or gaps DEL869-892): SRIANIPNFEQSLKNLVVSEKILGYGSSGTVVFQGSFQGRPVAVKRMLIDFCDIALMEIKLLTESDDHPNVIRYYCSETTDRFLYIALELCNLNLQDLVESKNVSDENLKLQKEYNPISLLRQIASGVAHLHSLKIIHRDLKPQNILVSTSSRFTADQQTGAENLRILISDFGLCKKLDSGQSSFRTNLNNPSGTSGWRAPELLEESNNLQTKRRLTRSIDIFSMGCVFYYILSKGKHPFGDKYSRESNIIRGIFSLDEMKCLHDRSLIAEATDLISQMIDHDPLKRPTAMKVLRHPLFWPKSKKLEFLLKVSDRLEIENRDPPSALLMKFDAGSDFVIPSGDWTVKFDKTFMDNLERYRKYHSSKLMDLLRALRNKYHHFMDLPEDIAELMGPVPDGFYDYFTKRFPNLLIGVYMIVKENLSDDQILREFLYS
Conditions: cited from earlier work.

Data set [3] has as its target T2, murine IRE1α (Mus musculus, UniProt Q9EQY0, N772Y). As to the kind of experiment: Oligomerization status by velocity analytical ultracentrifugation. To be noted: ADP 500 μM, JAK inhibitor I 30 μM.
Data set [4] addresses murine IRE1α auto-kinase activity (Mus musculus, UniProt Q9EQY0, N772Y). The experiment in a line: Auto-phosphorylation kinase assay with P32-γ-ATP. The format is biochemical. To be noted: read-out: IC50 (avg) auto-kinase activity of murine IRE1α; 10 minute time point; n=2.
Data set [5] concerns the target T2, murine IRE1α. As to the kind of experiment: biochemical. To be noted: IC50 IRE1α RNase activity, naphthol analogue series, average n=4 +/- s.d.
In data set [6] the target is T3, murine IRE1α Lys907Ala (Mus musculus, UniProt Q9EQY0, K907A/N772Y). As to the kind of experiment: Gel based RNase cleavage assay with dual-hairpin RNA substrate. Type of data set: biochemical. To be noted: 100 μM IRE1α, 60 μM dual hairpin substrate.
T3 sequence (Q9EQY0 499-977 N772Y/K907A): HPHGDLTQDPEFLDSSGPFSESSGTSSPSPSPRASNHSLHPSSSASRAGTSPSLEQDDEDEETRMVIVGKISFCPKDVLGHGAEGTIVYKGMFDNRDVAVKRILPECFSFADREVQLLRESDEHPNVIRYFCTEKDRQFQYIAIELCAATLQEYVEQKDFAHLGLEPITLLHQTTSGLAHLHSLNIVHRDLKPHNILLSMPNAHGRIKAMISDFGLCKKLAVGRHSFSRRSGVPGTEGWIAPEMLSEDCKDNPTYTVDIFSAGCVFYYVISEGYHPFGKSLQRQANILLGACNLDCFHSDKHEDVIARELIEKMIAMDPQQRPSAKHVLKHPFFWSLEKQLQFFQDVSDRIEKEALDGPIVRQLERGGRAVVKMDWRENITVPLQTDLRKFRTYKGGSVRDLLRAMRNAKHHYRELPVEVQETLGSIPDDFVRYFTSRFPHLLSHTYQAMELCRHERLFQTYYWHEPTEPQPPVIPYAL
Data set [7] deals with CD59 mRNA (RIDD target). The experiment in a line: CD59. Conditions: 10 μM. Type of data set: cell-based, human.
Data set [8] has as its target murine IRE1α Tyr892Ala (Mus musculus, UniProt Q9EQY0, N772Y/Y892A). The experiment in a line: Direct binding by micro-scale thermophoresis. To be noted: Kd (avg), average.
Data set [9] deals with XBP1 mRNA splicing (IRE1α). As to the kind of experiment: XBP1 mRNA splicing in RPMI 8226 plasmacytoma cells. Type of data set: cell-based, human.
Data set [10] concerns the target T3, murine IRE1α Lys907Ala. The experiment in a line: Direct binding by micro-scale thermophoresis.
Data set [11] has as its target T1, yeast IRE1. The experiment in a line: IRE1 RNase activity, real time fluorescence readout assay. Type of data set: biochemical. Conditions: RNase inhibition.
In data set [12] the target is murine IRE1α Phe889Ala (Mus musculus, UniProt Q9EQY0, F889A/N772Y). The experiment in a line: Direct binding by micro-scale thermophoresis. Conditions: Kd (avg), average.
Sequence of murine IRE1α Phe889Ala (Q9EQY0 499-977 N772Y/F889A): as the sequence (Q9EQY0 499-977 N772Y/K907A) above, with F391A, A409K counted along it
Data set [13] has as its target IRE1α auto-kinase activity (Mus musculus, UniProt Q9EQY0, N772Y). As to the kind of experiment: IRE1α auto-kinase. Type of data set: biochemical, murine.
In data set [14] the target is murine IRE1α His910Ala (Mus musculus, UniProt Q9EQY0, H910A/N772Y). As to the kind of experiment: Direct binding by micro-scale thermophoresis. Conditions: Kd (avg), average.
Sequence of murine IRE1α His910Ala (Q9EQY0 499-977 N772Y/H910A): as the sequence (Q9EQY0 499-977 N772Y/K907A) above, with A409K, H412A counted along it
In data set [15] the target is murine IRE1α Asn906Leu (Mus musculus, UniProt Q9EQY0, N772Y/N906L). As to the kind of experiment: Direct binding by micro-scale thermophoresis. To be noted: Kd (avg), average.
Sequence of murine IRE1α Asn906Leu (Q9EQY0 499-977 N772Y/N906L): as the sequence (Q9EQY0 499-977 N772Y/K907A) above, with N408L, A409K counted along it
Data set [16] deals with myeloma tumor. Conditions: cited from earlier work.

Bounds are passed on as bounds.

T2 sequence (Q9EQY0 499-977 N772Y): as the sequence (Q9EQY0 499-977 N772Y/K907A) above, with A409K counted along it
Sequence of murine IRE1α Tyr892Ala (Q9EQY0 499-977 N772Y/Y892A): as the sequence (Q9EQY0 499-977 N772Y/K907A) above, with Y394A, A409K counted along it
Sequence of IRE1α auto-kinase activity (Q9EQY0 499-977 N772Y): as the sequence (Q9EQY0 499-977 N772Y/K907A) above, with A409K counted along it
Sequence of murine IRE1α auto-kinase activity (Q9EQY0 499-977 N772Y): as the sequence (Q9EQY0 499-977 N772Y/K907A) above, with A409K counted along it

In the case of `Cc1cc(=O)oc2c(C=O)c(O)ccc12` [4μ8C], the “XBP1s, inflammatory cytokines and inflammation” value in data set [1] was “effective in suppressing”.

On to JAK inhibitor I, for which the “Effect on dimerization/oligomerization of yeast IRE1 and its RNase activity” value in data set [2] is reported as “promoted”. The “Effect on concentration dependent oligomerization of IRE1α” value in data set [3] is given as “enhanced”. For the same molecule, in data set [4], the IC50 stood at 1100 nM.

Regarding `CN1CCN(C(=O)c2ccc(-c3ccc4ccc(O)c(C=O)c4c3)cc2)CC1` [MKC4027, 2-Hydroxy-7-[4-(4-methyl-piperazine-1-carbonyl)-phenyl]-naphthalene-1-carbaldehyde], the IC50 in [5] was 5.7 µM.

For `COCCOCCc1c(C)c2cc(OC)c(O)c(C=O)c2oc1=O` [MKC9989, 7-Hydroxy-6-methoxy-3-(2-(2-methoxyethoxy)ethyl)-4-methyl-2-oxo-2H-chromene-8-carbaldehyde], in [6], the “Sensitivity of RNase activity to inhibitor” value was “insensitive”. Besides, the figures for the “CD59 mRNA level” value in [7] (administered 2 hour post treatment with thapsigargin), in [7] (co-administered with thapsigargin relative to thapsigargin alone) and in [7] (non-stressed cells) were “moderately stabilized”, “markedly stabilized” and “modestly increased”, respectively. The Kd in data set [8] amounted to 10 µM; in [12] it was 10.9 µM; in data set [14], 5.3 µM; in data set [15] it was 8.9 µM. For the same molecule, in data set [9] (10 μM compound, 1 μM thapsigargin, RPMI 8226), the “Inhibition of basal and thapsigargin induced splicing of XBP1 mRNA” value is “completely inhibited”. Further, the concentration giving a half-maximal response (EC50) in data set [9] (Homo sapiens, RPMI-8226, read-out: EC50 (avg) XBP1 splicing) turned out to be 330 nM. Moreover, the “Binding to IRE1α Lys907Ala” value in data set [10] is reported as “abolished detectable binding”. Also, in data set [11], the “Resistance of yeast IRE1 relative to IRE1α” value was ~ 100 fold. For the same molecule, in data set [13], the IC50 was > 10 µM.

In the case of `O=Cc1c(O)ccc2ccc(Br)cc12` [MKC3987, 7-Bromo-2-hydroxy-naphthalene-1-carbaldehyde], the IC50 in data set [5] stood at 0.39 µM.

Take `CN1CCN(C(=O)c2ccc(-c3ccc4c(C=O)c(O)ccc4c3)s2)CC1` [MKC3946, 2-Hydroxy-6-[5-(4-methyl-piperazine-1-carbonyl)-thiophen-2-yl]-naphthalene-1-carbaldehyde]: in [16], the Myeloma tumor growth result is given as “reduced myeloma tumor growth”; the “Splicing of XBP1 mRNA in tissues and tumors” value was “inhibited the splicing of XBP1 mRNA in tissues and tumors”; the Tolerability in vivo result is “readily tolerated with high exposure”.
